From US20240000748A1, “FORMULATIONS AND METHODS FOR TREATING ACUTE CANNABINOID OVERDOSE” (Anebulo Pharmaceuticals, Inc., priority 2020, published 2024)

Columns and labels:
C57 mice = assay: Reversal of THC-induced hypolocomotion in mice; format: in vivo; conditions: 30 min pre-test
Experimental: Reversal of THC-induced hypolocomotion in mice: Six C57 mice (Charles River, Wilmington, MA) were administered […] (THC) 3 mg/kg ip, 10 min pre-test. […] In this apparatus, four qualitatively different measures of locomotor activity are automatically scored. […] The magnitude of the effect is similar to that elicited by rimonabant given at 3 mg/kg po, and given 30 min pre-test.

rat = assay: Repeated dose (28 day) toxicity study in rat; format: in vivo; conditions: repeated dose 28 day
Experimental: Repeated dose (28 day) toxicity studies were conducted using ANEB-001 in two species, rat and primate, selected on the basis of acceptable bioavailability and comparison of metabolite profiles with those in human liver microsomes.

CC(C)(C)NC(=O)N1CC(O[C@H](c2ccc(Cl)cc2)c2ccccc2C(F)(F)F)C1 [ANEB-001, 3-[(R)-2-(trifluoromethyl)-4′-chlorobenzhydryloxy]-N-(tert-butyl)azetidine-1-carboxamide]
action of THC on the total active time parameter of locomotor measures (C57 mice; 30 mg/kg orally, THC 3 mg/kg ip 10 min pre-test, 15 min in locomotor activity cages): significantly reversed | findings at dose levels of 75 mg/kg/day (rat; 75 mg/kg/day): hepatic changes consistent with an adaptive response | no observed adverse effect level (rat; highest dose tested): 75 mg/kg/day

Cc1c(C(=O)NN2CCCCC2)nn(-c2ccc(Cl)cc2Cl)c1-c1ccc(Cl)cc1 [rimonabant, reference compound]
magnitude of the effect on THC-induced hypolocomotion (compared with ANEB-001) (C57 mice; 3 mg/kg po): similar
